Source: BindingDB's records for patent US20240360157 (Biogen Ma, 2024)

What was measured:
Test in all cases: ADP-Glo Kinase Assay
[1] = molecular target: Tyrosine-protein kinase JAK2 (Homo sapiens, UniProt O60674)
Method: (§1) The kinase activity of recombinantly generated catalytic kinase (also known as JH1) domain of human JAK1, JAK2, JAK3 and TYK2 were evaluated in a plate-based assay using the ADP-Glo™ Kinase Assay platform. Specifically, 4 nM of recombinant JAK1 kinase domain is used to phosphorylate 50 μM of a JAK3-342 (sequence ALVDGYFRLTT) peptide in the presence of 35 μM ATP. Catalytic activities of recombinant JAK2, JAK3 and TYK2 kinase domain (0.2, 0.3 and 2 nM, respectively) are evaluated by the phosphorylation status of the JAK3-974 (50 μM; sequence LPLDKDYYVVR) peptide with the addition of ATP (15, 4 and 10 μM, respectively). The reactions proceed for 100 minutes and the catalytic activity is quantified by first depleting the unused ATP, converting the hydrolyzed ADP into ATP to generate luminescence in a luciferase reaction; which is the basis of the ADP-Glo platform. Compounds are tested at either 10 μM or 1 μM top concentration, 11 points of 3-fold dilution.

[2] = molecular target: Non-receptor tyrosine-protein kinase TYK2 (Homo sapiens, UniProt P29597)
Method: as §1

[3] = molecular target: Tyrosine-protein kinase JAK1 (Homo sapiens, UniProt P23458)
Method: as §1

[4] = molecular target: T1, Tyrosine-protein kinase JAK3 [3-974] (UniProt P52333)
T1 construct: 3-974
T1 sequence (P52333 whole entry): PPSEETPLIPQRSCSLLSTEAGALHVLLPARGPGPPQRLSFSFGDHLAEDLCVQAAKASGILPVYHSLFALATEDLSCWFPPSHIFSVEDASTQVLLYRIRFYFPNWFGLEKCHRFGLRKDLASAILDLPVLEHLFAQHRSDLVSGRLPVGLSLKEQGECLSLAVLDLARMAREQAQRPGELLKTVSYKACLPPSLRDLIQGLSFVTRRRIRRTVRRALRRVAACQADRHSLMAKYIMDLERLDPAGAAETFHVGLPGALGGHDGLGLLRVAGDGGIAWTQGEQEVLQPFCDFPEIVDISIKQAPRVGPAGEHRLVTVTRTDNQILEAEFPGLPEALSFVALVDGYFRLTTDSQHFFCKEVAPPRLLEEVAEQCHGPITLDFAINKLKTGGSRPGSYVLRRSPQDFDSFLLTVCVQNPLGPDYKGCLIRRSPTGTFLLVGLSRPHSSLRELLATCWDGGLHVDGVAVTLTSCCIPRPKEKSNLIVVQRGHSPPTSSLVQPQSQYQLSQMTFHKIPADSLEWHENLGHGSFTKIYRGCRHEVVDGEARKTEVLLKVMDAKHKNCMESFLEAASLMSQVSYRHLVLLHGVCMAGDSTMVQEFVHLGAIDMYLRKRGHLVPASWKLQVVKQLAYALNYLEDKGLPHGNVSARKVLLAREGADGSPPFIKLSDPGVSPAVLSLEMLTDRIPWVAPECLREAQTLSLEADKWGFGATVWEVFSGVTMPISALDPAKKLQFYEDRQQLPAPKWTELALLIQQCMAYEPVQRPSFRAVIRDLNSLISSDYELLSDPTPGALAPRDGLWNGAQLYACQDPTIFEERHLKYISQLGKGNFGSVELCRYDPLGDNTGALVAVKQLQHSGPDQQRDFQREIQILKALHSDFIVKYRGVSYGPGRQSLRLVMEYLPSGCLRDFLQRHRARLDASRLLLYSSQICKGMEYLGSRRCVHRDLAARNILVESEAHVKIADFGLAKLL
Method: as §1

Tyrosine-protein kinase JAK1, sequence (P23458 whole entry): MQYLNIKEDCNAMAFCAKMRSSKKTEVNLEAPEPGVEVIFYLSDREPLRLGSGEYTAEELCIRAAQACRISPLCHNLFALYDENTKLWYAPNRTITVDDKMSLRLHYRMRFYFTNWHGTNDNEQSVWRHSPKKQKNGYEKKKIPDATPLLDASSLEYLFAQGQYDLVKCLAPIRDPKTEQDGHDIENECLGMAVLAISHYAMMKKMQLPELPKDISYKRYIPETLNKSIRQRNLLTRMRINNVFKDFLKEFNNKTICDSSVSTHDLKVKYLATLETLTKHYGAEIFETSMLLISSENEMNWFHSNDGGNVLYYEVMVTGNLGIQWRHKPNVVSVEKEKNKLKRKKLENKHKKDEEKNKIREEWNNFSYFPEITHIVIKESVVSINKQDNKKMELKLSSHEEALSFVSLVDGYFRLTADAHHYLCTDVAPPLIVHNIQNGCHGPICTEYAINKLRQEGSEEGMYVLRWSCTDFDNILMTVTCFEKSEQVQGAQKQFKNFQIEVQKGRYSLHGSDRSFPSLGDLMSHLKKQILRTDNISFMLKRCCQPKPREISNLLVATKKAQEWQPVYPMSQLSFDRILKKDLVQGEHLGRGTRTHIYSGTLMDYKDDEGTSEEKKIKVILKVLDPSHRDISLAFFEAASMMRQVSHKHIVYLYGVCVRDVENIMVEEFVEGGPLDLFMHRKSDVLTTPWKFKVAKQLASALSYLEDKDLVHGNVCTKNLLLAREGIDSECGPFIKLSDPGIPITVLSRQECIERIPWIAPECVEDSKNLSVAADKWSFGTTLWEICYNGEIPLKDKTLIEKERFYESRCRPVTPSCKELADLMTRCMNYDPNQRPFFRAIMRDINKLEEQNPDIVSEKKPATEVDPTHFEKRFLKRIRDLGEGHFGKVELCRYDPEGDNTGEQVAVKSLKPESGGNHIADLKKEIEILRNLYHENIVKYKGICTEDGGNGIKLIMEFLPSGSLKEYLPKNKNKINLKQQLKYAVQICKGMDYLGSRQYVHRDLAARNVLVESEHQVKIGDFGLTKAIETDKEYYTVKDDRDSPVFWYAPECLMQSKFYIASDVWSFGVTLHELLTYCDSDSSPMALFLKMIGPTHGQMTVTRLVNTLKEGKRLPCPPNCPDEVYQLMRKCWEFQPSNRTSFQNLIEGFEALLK
Tyrosine-protein kinase JAK2, sequence (O60674 whole entry, the tested form may be a part): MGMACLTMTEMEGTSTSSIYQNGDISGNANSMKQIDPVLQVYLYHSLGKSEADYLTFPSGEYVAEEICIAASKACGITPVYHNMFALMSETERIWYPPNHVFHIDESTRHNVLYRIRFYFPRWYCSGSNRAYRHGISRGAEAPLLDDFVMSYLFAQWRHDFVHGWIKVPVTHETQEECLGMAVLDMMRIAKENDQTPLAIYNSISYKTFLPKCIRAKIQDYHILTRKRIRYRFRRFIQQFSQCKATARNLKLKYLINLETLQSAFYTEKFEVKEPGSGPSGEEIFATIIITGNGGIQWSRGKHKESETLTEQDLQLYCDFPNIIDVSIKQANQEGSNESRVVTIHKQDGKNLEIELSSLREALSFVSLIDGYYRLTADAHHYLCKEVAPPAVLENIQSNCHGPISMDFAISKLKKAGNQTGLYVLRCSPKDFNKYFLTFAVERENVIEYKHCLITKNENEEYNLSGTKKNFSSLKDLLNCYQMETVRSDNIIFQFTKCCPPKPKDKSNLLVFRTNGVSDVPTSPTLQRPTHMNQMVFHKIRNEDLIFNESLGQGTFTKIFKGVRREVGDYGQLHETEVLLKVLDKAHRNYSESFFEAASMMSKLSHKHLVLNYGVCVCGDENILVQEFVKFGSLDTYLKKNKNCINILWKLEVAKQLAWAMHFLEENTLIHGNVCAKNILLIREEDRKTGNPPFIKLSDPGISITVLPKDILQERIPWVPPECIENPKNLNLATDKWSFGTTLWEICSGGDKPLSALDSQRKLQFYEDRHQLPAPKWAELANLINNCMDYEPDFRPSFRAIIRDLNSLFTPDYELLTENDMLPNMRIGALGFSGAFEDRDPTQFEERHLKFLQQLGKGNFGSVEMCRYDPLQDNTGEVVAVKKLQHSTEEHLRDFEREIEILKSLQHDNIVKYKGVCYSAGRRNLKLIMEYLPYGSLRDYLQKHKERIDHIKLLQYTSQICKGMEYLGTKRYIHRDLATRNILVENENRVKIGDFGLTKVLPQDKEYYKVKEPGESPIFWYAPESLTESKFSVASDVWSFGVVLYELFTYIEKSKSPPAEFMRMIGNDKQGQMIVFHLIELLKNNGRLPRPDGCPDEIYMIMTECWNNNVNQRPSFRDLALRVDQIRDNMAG
Non-receptor tyrosine-protein kinase TYK2, sequence (P29597 whole entry): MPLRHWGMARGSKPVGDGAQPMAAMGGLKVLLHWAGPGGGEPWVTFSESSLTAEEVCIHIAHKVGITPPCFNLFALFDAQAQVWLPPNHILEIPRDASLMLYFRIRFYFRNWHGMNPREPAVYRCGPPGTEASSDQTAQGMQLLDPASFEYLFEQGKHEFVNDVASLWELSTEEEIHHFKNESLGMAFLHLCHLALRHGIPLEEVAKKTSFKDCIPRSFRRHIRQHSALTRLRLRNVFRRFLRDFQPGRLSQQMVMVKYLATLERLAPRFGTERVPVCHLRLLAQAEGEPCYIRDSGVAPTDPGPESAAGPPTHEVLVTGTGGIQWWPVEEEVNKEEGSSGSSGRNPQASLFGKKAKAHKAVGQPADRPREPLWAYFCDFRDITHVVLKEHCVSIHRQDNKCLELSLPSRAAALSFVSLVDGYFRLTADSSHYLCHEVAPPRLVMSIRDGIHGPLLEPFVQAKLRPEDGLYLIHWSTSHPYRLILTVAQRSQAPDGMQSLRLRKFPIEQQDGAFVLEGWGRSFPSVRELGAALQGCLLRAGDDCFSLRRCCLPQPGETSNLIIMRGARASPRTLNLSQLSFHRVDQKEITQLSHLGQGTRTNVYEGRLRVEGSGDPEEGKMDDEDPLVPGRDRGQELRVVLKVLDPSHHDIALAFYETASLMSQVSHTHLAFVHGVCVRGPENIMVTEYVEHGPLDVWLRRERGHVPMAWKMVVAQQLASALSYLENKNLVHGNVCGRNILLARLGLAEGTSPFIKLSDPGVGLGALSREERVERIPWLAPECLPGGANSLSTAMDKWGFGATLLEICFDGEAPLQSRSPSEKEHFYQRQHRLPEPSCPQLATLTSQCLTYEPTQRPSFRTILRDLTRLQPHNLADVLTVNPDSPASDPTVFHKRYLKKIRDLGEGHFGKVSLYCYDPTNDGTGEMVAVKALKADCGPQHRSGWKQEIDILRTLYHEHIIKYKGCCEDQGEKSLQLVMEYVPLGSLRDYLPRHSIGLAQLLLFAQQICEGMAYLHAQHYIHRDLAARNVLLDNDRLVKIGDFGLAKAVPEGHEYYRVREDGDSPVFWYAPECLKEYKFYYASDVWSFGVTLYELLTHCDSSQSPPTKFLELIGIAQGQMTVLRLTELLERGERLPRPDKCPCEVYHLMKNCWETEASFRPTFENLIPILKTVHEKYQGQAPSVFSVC

Row | SMILES | IC50 [1] | IC50 [2] | IC50 [3] | IC50 [4]
1 | Cn1cc(-c2cc3c(N4CC5CCC(C4)N5C(=O)[C@@H]4CC4(F)F)ccnc3[nH]2)cn1 [US20240360157, Example 239] | 8 nM | 0.2 nM | 18 nM | 114 nM
2 | COc1cc(-c2cc3c(N4CC5CCC(C4)N5C(=O)[C@@H]4C[C@H]4F)ccnc3[nH]2)c(F)cn1 [US20240360157, Example 246] | 53 nM | 5.1 nM | 76 nM | 992 nM
